# Reference: US20250375459A1, “METHODS FOR AMELIORATING COGNITIVE IMPAIRMENT USING BILE ACID DERIVATIVES” (INTERCEPT PHARMACEUTICALS, INC., priority 2022, published 2025)
# Legend:
# [1] = preclinical data, given early in the disease course; cited from earlier work
# C57 Blk/6 mice [2] = experiment: Y-maze testing of spatial memory in aged mice cohort (non-cholestatic cognitive decline); format: in vivo
# Description: FIG. 1 is an illustration of an aged mice cohort study plan.
# FIG. 2 is a bar graph showing the results of Y-maze testing on aged mice treated with ursodeoxycholic acid (URSO), obeticholic acid (OCA), or control at 11 and 14 months, according to the cohort study plan in FIG. 1.
# (§1) Cognitive impairment is a clinical issue with age-related cognitive decline being a substantial problem in society. C57 Blk/6 mice were aged to 9 months when they started either 6 months of Ursodeoxycholic acid or Obeticholic acid therapy or were left to age naturally to 15 months. Between 9 and 15 months of age mice develop progressive cognitive decline, by 15 months, with a novel arm time of one third indicating complete loss of short-term spatial memory (FIG. 2). Y-maze testing was repeated on the animals in each group at 11 and 14 months (FIG. 2; left bars and right bars respectively). […] The effect was not only behavioral.
# C57 Blk/6 mice [3] = experiment: Immunofluorescence analysis of neurons and neural progenitors in aged mice; format: in vivo
# Description: FIG. 3 is a bar graph showing immunofluorescence analysis of aged mice treated with obeticholic acid (OCA), ursodeoxycholic acid (URSO), or no supplement (wild type or WT) ad libitum each at 15 months (15 mnth) vs. 9 months (9 mnth), according to the cohort study plan in FIG. 1.
# as §1
# [4] = longer-term experiments, aged mice
compound,measurement,setting,value
"CC[C@H]1[C@@H](O)[C@@H]2[C@H](CC[C@]3(C)[C@@H]([C@H](C)CCC(=O)O)CC[C@@H]23)[C@@]2(C)CC[C@@H](O)C[C@@H]12 [OCA, 3α,7α-dihydroxy-6α-ethyl-5β-cholan-24-oic acid]","cognitive dysfunction in cholestasis (e.g., PBC)",[1],reverse
same,Y-maze spatial memory performance between ages 11 and 14 months,"C57 Blk/6 mice [2]; aged C57 Blk/6 mice, therapy started at 9 months, Y-maze at 11 and 14 months",significantly improved
same,"non-cholestatic (age-related) cognitive decline, loss of short-term spatial memory",C57 Blk/6 mice [2]; therapy given between 9 and 15 months of age in the diet,completely abrogated
same,SOX2+ neural progenitor population,"C57 Blk/6 mice [3]; compared to both aged matched groups, 15 months",significant increase
same,"NeuN+ neuron count, neuron loss between 9 and 15 months","C57 Blk/6 mice [3]; immunofluorescence, supplement from 9 to 15 months, fed ad lib",no significant neuron loss
same,neuronal precursors,C57 Blk/6 mice [3]; [4],significant increase
same,overall neuronal cell loss,C57 Blk/6 mice [3]; [4],reversal
same,neurogenesis,"C57 Blk/6 mice [3]; wild-type (WT) mice, FIG. 3",significantly increases
same,neuronal loss,"C57 Blk/6 mice [3]; wild-type (WT) mice, FIG. 3",slows
